In ChEMBL document CHEMBL1201862, “PubChem BioAssay data set” (2004):
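Method: 48-hour compound exposure of cells in 96-well plates, five concentrations, linear interpolation of endpoints. GI50: concentration for 50% inhibition of growth.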 Activity calls are given as the source filed them. Rule as the data show it: active = GI50 up to about 1.1 µM and inactive = higher.

Columns and labels:
Assay in all cases: NCI tumour cell line growth inhibition, 48 h
MOLT-4 = test system: MOLT-4
SF-539 = test system: SF-539
SNB-75 = test system: SNB-75
HOP-62 = test system: HOP-62
NCI/ADR-RES = test system: NCI/ADR-RES
SF-268 = test system: SF-268
OVCAR-8 = test system: OVCAR-8
UACC-257 = test system: UACC-257
A549 = test system: A549
DU-145 = test system: DU-145
HOP-92 = test system: HOP-92
Hs-578T = test system: Hs-578T
LOX IMVI = test system: LOX IMVI
NCI-H226 = test system: NCI-H226
COLO 205 = test system: COLO 205
NCI-H23 = test system: NCI-H23
BT-549 = test system: BT-549
T47D = test system: T47D
M14 = test system: M14
SK-OV-3 = test system: SK-OV-3
RXF 393 = test system: RXF 393
HCC 2998 = test system: HCC 2998
U-251 = test system: U-251
HT-29 = test system: HT-29
NCI-H460 = test system: NCI-H460
HCT-15 = test system: HCT-15
MDA-MB-231 = test system: MDA-MB-231
SK-MEL-5 = test system: SK-MEL-5
Malme-3M = test system: Malme-3M
OVCAR-5 = test system: OVCAR-5
SN12C = test system: SN12C
UO-31 = test system: UO-31
NCI-H522 = test system: NCI-H522
SNB-19 = test system: SNB-19
TK-10 = test system: TK-10
MCF7 = test system: MCF7
HCT-116 = test system: HCT-116
ACHN = test system: ACHN
CAKI-1 = test system: CAKI-1
MDA-MB-435 = test system: MDA-MB-435
HL-60 = test system: HL-60
K562 = test system: K562
OVCAR-4 = test system: OVCAR-4
SK-MEL-28 = test system: SK-MEL-28
OVCAR-3 = test system: OVCAR-3
CCRF-CEM = test system: CCRF-CEM
SF-295 = test system: SF-295
786-0 = test system: 786-0
SK-MEL-2 = test system: SK-MEL-2
A498 = test system: A498
RPMI-8226 = test system: RPMI-8226
KM12 = test system: KM12
SW-620 = test system: SW-620
PC-3 = test system: PC-3
UACC-62 = test system: UACC-62
IGROV-1 = test system: IGROV-1
EKVX = test system: EKVX
MDA-N = test system: MDA-N
SR = test system: SR

Measured: GI50

O=C(O)CCC1NC(/C(=C/c2ccccc2O)NC(=O)c2ccccc2)OC1=O (configuration not stated)
inactive: MOLT-4 > 100 µM | SF-539 95.3 µM | SNB-75 23.2 µM | HOP-62 17.5 µM | NCI/ADR-RES 88.5 µM | SF-268 61.5 µM | OVCAR-8 46.8 µM | UACC-257 27.5 µM | A549 > 100 µM | DU-145 > 100 µM | HOP-92 > 100 µM | Hs-578T 43.8 µM | LOX IMVI > 100 µM | NCI-H226 72.3 µM | COLO 205 > 100 µM | NCI-H23 > 100 µM | BT-549 72.6 µM | T47D 16 µM | M14 > 100 µM | SK-OV-3 44.2 µM | RXF 393 34.2 µM | HCC 2998 > 100 µM | U-251 37.2 µM | HT-29 > 100 µM | NCI-H460 > 100 µM | MDA-MB-231 46.9 µM | SK-MEL-5 > 100 µM | Malme-3M > 100 µM | OVCAR-5 > 100 µM | SN12C > 100 µM | UO-31 18 µM | NCI-H522 64.1 µM | SNB-19 32.5 µM | TK-10 56.1 µM | MCF7 3.39 µM | HCT-116 67.3 µM | ACHN 33 µM | CAKI-1 > 100 µM | MDA-MB-435 15.8 µM | HL-60 > 100 µM | K562 > 100 µM | OVCAR-4 > 100 µM | SK-MEL-28 > 100 µM | OVCAR-3 > 100 µM | CCRF-CEM > 100 µM | SF-295 35.4 µM | 786-0 46.7 µM | SK-MEL-2 > 100 µM | A498 > 100 µM | RPMI-8226 > 100 µM | KM12 4.57 µM | SW-620 > 100 µM | PC-3 > 100 µM | UACC-62 > 100 µM | IGROV-1 30.5 µM | EKVX > 100 µM
> 100 µM: HCT-15

Cc1nc2sccn2c1C(=O)OCCOCCOCCOCCOC(=O)c1c(C)nc2sccn12
> 100 µM: HCT-15
inactive: MOLT-4 18.2 µM | SF-539 77.4 µM | HOP-62 > 100 µM | NCI/ADR-RES 27.9 µM | SF-268 > 100 µM | MDA-N 36.1 µM | OVCAR-8 39.6 µM | UACC-257 16.5 µM | A549 > 100 µM | DU-145 > 100 µM | HOP-92 > 100 µM | Hs-578T > 100 µM | LOX IMVI 57.3 µM | NCI-H226 16 µM | COLO 205 86.7 µM | NCI-H23 19.5 µM | BT-549 34.6 µM | M14 43.4 µM | RXF 393 > 100 µM | HCC 2998 > 100 µM | U-251 > 100 µM | HT-29 > 100 µM | NCI-H460 80.7 µM | MDA-MB-231 > 100 µM | SR 45.9 µM | SK-MEL-5 11.7 µM | Malme-3M > 100 µM | OVCAR-5 > 100 µM | SN12C > 100 µM | UO-31 70.5 µM | NCI-H522 48.8 µM | SNB-19 > 100 µM | TK-10 > 100 µM | MCF7 61.5 µM | HCT-116 > 100 µM | ACHN > 100 µM | CAKI-1 > 100 µM | MDA-MB-435 45.4 µM | HL-60 15.7 µM | K562 35.5 µM | OVCAR-4 71.8 µM | SK-MEL-28 90.2 µM | OVCAR-3 > 100 µM | SF-295 63.4 µM | 786-0 > 100 µM | SK-MEL-2 76.4 µM | A498 > 100 µM | RPMI-8226 52.7 µM | KM12 49.7 µM | SW-620 > 100 µM | PC-3 63.2 µM | UACC-62 38.6 µM | IGROV-1 > 100 µM | EKVX 32.1 µM

Oc1c(C(O)c2ccccn2)ccc2ccccc12 (configuration not stated)
22.1 µM: HCT-15
inactive: MOLT-4 19.6 µM | SF-539 87.3 µM | SNB-75 24.4 µM | HOP-62 81.3 µM | NCI/ADR-RES 42.1 µM | SF-268 72.4 µM | OVCAR-8 74.6 µM | UACC-257 > 100 µM | A549 61.7 µM | DU-145 > 100 µM | Hs-578T 35.1 µM | LOX IMVI > 100 µM | NCI-H226 85.3 µM | NCI-H23 69.8 µM | T47D > 100 µM | M14 > 100 µM | RXF 393 32.9 µM | HCC 2998 17.1 µM | U-251 52 µM | SK-MEL-5 22.7 µM | SN12C 48.1 µM | UO-31 29.6 µM | NCI-H522 17.4 µM | SNB-19 > 100 µM | HCT-116 32.2 µM | ACHN 66.4 µM | HL-60 15.1 µM | K562 26.4 µM | OVCAR-3 56.8 µM | CCRF-CEM 17.9 µM | SF-295 > 100 µM | KM12 54.1 µM | PC-3 26.9 µM | UACC-62 14.4 µM | EKVX 53.1 µM

C(=C\c1cc[n+](CCc2ccccc2)cc1)/c1ccccc1
inactive: MOLT-4 12.9 µM | SF-539 20.4 µM | SNB-75 24 µM | HOP-62 12.6 µM | NCI/ADR-RES > 100 µM | SF-268 18.1 µM | OVCAR-8 3.86 µM | UACC-257 4.25 µM | A549 5.64 µM | DU-145 27 µM | HOP-92 24.7 µM | Hs-578T 15.2 µM | LOX IMVI 17.5 µM | NCI-H226 13.8 µM | COLO 205 5.73 µM | NCI-H23 12.5 µM | BT-549 11.3 µM | T47D 5.58 µM | M14 7.91 µM | SK-OV-3 18.6 µM | RXF 393 88.7 µM | U-251 4.9 µM | HT-29 6.79 µM | NCI-H460 8.69 µM | MDA-MB-231 12.6 µM | SK-MEL-5 1.28 µM | Malme-3M 11.2 µM | OVCAR-5 22.9 µM | SN12C 4.02 µM | UO-31 > 100 µM | NCI-H522 14.7 µM | SNB-19 12.7 µM | TK-10 21.5 µM | MCF7 9.16 µM | HCT-116 11.3 µM | ACHN 26.9 µM | CAKI-1 22.4 µM | MDA-MB-435 4.98 µM | K562 16.8 µM | OVCAR-4 9.04 µM | SK-MEL-28 10.6 µM | OVCAR-3 5.26 µM | CCRF-CEM 13.4 µM | SF-295 24.9 µM | 786-0 21.8 µM | SK-MEL-2 17.1 µM | RPMI-8226 5.45 µM | KM12 3.98 µM | SW-620 12.1 µM | PC-3 15.2 µM | UACC-62 10.7 µM | IGROV-1 31.7 µM | EKVX 56.9 µM
> 100 µM: HCT-15

NC(N)=NCCC(O)(P(=O)(O)O)P(=O)(O)O
> 100 µM: HCT-15
inactive: SF-539 > 100 µM | HOP-62 > 100 µM | NCI/ADR-RES > 100 µM | SF-268 > 100 µM | MDA-N > 100 µM | UACC-257 > 100 µM | A549 > 100 µM | DU-145 > 100 µM | Hs-578T 15 µM | LOX IMVI > 100 µM | NCI-H226 > 100 µM | COLO 205 > 100 µM | NCI-H23 > 100 µM | BT-549 > 100 µM | M14 > 100 µM | SK-OV-3 > 100 µM | RXF 393 > 100 µM | HCC 2998 > 100 µM | NCI-H460 > 100 µM | MDA-MB-231 > 100 µM | SK-MEL-5 > 100 µM | Malme-3M > 100 µM | OVCAR-5 > 100 µM | UO-31 > 100 µM | NCI-H522 > 100 µM | SNB-19 > 100 µM | TK-10 > 100 µM | MCF7 > 100 µM | HCT-116 > 100 µM | ACHN > 100 µM | CAKI-1 > 100 µM | OVCAR-3 > 100 µM | SF-295 > 100 µM | 786-0 46.9 µM | KM12 > 100 µM | PC-3 > 100 µM | UACC-62 > 100 µM | IGROV-1 > 100 µM | EKVX > 100 µM
